Results on 1 sequence are retold here after PMC11355700, “Antioxidant and Skin-Whitening Efficacy of a Novel Decapeptide (DP, [sequence]) Derived from Fish By-Products” (Marine Drugs, 2024).

One data set has as its system MITF mRNA. As to the kind of experiment: RT-PCR of MITF mRNA in α-MSH-stimulated B16F10 cells. It counts as cell-based, mouse. To be noted: 0.1, 1, and 10 μM; α-MSH 200 nM; normalized to GAPDH. As for the experimental part:
(§1) B16F10 melanoma cells were obtained from the KCLB and cultured in DMEM medium supplemented with 10% FBS (Gibco BRL, Grand Island, NY, USA) and 1% penicillin. The cells were incubated in a humidified incubator at 37 °C and 5% CO2.
(§2) Total RNA was extracted using the High Pure RNA Isolation Kit (Invitrogen Co., Waltham, MA, USA) according to the manufacturer’s instructions and quantified using a NanoDrop (Thermo Scientific, Waltham, MA, USA). For the reverse transcription reaction, 1 μg of isolated RNA and 1 μL of oligo DT (100 pM) were combined with DEPC to a total volume of 11 μL, followed by the reverse transcription reaction using the RT Premix Kit (Bioneer Co., Daejeon, Republic of Korea) as per the manufacturer’s protocol. PCR for MITF, Tyrosinase, and MC1R genes was conducted using 2 μL of the cDNA products obtained from the reverse transcription reaction, with the PCR Premix Kit (Bioneer Co.) according to the manufacturer’s instructions. The cDNA products amplified by reverse transcription and polymerase chain reaction were analyzed by electrophoresis on 2.0% agarose gels containing ethidium bromide.

Data set [1] in a line: ABTS radical scavenging activity. To be noted: n = 3. It counts as biochemical. The procedure: The ABTS radical scavenging activity of C. notate head hydrolysate was determined by an adaptation of the ABTS radical cation decolorization assay of Re et al.. A 7 mM ABTS solution and a 2.45 mM potassium persulfate (Sigma Co., Fukushima, Japan) solution were mixed (v/v) to a final concentration and allowed to stand in the dark at room temperature (RT) for 24 h. Afterward, distilled water was added to dilute the solution until the absorbance at 732 nm reached 0.70 (±0.02). Then, 990 μL of this diluted ABTS solution was mixed with 10 μL of the sample solution and incubated at RT for 1 min. The absorbance was measured at 732 nm (Figure 1).

A further data set deals with mushroom tyrosinase. Kind of data set: Tyrosinase inhibitory activity (DOPA chrome formation). It counts as biochemical. The settings on record: DL-DOPA substrate, pH 6.8, 37 °C, 10 min, 475 nm. As for the experimental part: The inhibitory activity of tyrosinase, which is involved in the key steps of melanin synthesis, was measured using a colorimetric method modified from Masamoto et al. by detecting the formation of DOPA chrome as a result of the enzyme’s action. As a substrate, a mixture containing 0.2 mL of 5 mM DL-DOPA solution, 0.2 mL of 0.1 M phosphate buffer (pH 6.8), and 0.5 mL of sample solution was prepared. To this mixture, 0.1 mL of mushroom tyrosinase (Sigma Co., 250 unit/mL) was added and incubated at 37 °C for 10 min. After incubation, the absorbance was measured at a wavelength of 475 nm to calculate the tyrosinase inhibitory activity.

The conditions of data set [2]: previous research; cited from earlier work. The text has this:
(§3) This study aims to evaluate the antioxidant and skin-whitening effects of this novel decapeptide (DP) through in vitro and in silico analyses and to establish its potential as a new skin-whitening agent.

The test system of the next data set is tyrosinase. The settings on record: previous research; cited from earlier work.
From the text: as §3

Data set [3] relates to B16F10 melanoma cells. As to the kind of experiment: Cytotoxicity (MTT) in B16F10 melanoma cells. It counts as cell-based, mouse. To be noted: 12.5, 50, and 100 μM, 24 h. The procedure: as §1
To determine the cytotoxicity of DP and establish the concentration range for the experiment, an MTT assay was conducted. Cells were seeded in 96-well plates at a density of 1.0 × 10^4 cells/well. After 24 h, once the cells were fully attached, the medium was replaced with fresh medium containing 200 nM α-MSH and various concentrations of DP. After another 24 h of incubation, an MTT assay was performed.

A further data set concerns tyrosinase mRNA. Kind of data set: RT-PCR of tyrosinase mRNA in α-MSH-stimulated B16F10 cells. The data set is classed as cell-based, mouse. The settings on record: 0.1, 1, and 10 μM; α-MSH 200 nM; normalized to GAPDH. As for the experimental part: as §1, §2
Data set [4] is described as follows: Ferric reducing antioxidant power (FRAP). The data set is classed as biochemical. To be noted: FRAP reagent pH 3.6, 5 min, 37 °C, 593 nm, n = 3. As for the experimental part:
FRAP was measured using the method adapted from Benzie and Strain [46]. The FRAP reagent was prepared by mixing a 300 mM sodium acetate buffer (pH 3.6), a 10 mM 2,4,6-tripyridyl-s-triazine (TPTZ) solution dissolved in 40 mM HCl, and a 20 mM FeCl3 solution in a 10:1:1 ratio just before the experiment. A 10 μL sample of each concentration was mixed with 200 μL of FRAP reagent, incubated for 5 min at 37 °C, and then the absorbance was measured at 593 nm using a Microplate Spectrophotometer (xMarkTM, BIO-RAD, Hercules, CA, USA). The FRAP value of the sample was determined by applying the absorbance values to a standard calibration curve prepared with 0–5 mM FeSO4·H2O, and the results were expressed as FeSO4 equivalent mM/μM.

In data set [5] the test system is HaCaT cells. Kind of data set: ROS generation (DCFH-DA) in H2O2-treated HaCaT cells. The data set is classed as cell-based, human. The settings on record: DP 50, 100, 200 μM; H2O2 500 μM, 24 h; DCFH-DA 25 μM, 30 min; n = 3. The procedure:
(§4) The cell line used in the experiment, the HaCaT cell line, a human keratinocyte, was purchased from the Korea Cell Line Bank (KCLB, Seoul, Republic of Korea). HaCaT cells were cultured in a DMEM medium supplemented with 10% FBS and 1% penicillin–streptomycin. The cells were subcultured every 2 to 3 days in an incubator maintained at 37 °C and 5% CO2.
HaCaT cells were seeded at 1 × 10^4 cells per well in a 96-well black plate and cultured for 24 h. The cultured cells were treated with DP at concentrations of 50, 100, and 200 μM and then exposed to 500 μM H2O2 for 24 h to induce ROS generation. After H2O2 treatment, the cells were stained with 25 μM dichlorodihydro-fluorescein diacetate (DCFH-DA) for 30 min. The fluorescence intensity corresponding to intracellular ROS production was measured using a fluorescent spectrophotometer at an excitation wavelength of 485 nm and an emission wavelength of 530 nm. The results were expressed as ROS production (%) relative to the fluorescence measurement value of the untreated control, which was set to 100.

Data set [6] concerns HaCaT cells. As to the kind of experiment: Cell viability (MTT) of H2O2-treated HaCaT cells. The data set is classed as cell-based, human. The settings on record: DP 50, 100, 200 μM with H2O2 500 μM, 24 h, n = 3. As for the experimental part:
as §4
To assess the cytotoxicity of DP and H2O2, cells (1 × 10^4 in a 96-well plate) were cultured at 37 °C and 5% CO2 for 24 h. The cultured cells were then treated with DP and H2O2. After 24 h of treatment, 10 μL of MTT (5 mg/mL) solution was added, and the cells were incubated for 4 h. Following this, the supernatant was removed, and 100 μL of DMSO was added to each well. The absorbance was measured at 550 nm using an ELISA reader.

In data set [7] the test system is B16F10 melanoma cells. As to the kind of experiment: Melanin content and morphology in α-MSH-induced B16F10 melanoma cells. It counts as cell-based, mouse. To be noted: for Melanin content: α-MSH (200 nM) 24 h, α-MSH treated group 152.36%, 405 nm. The procedure: as §1
To measure melanin production in B16F10 cells, cells were seeded in 6-well plates at a density of 5 × 10^4 cells/well. After 24 h, the medium was replaced with fresh medium containing 2% FBS, 200 nM α-MSH, and various concentrations of DP. […] After incubation, the cells were washed with PBS, harvested by centrifugation, and the melanin content was visually inspected. The harvested cells were dissolved in 400 μL of 0.2 N NaOH solution and incubated at 60 °C for 1 h. The absorbance was measured at 405 nm using a microplate reader.

Another data set relates to MC1R mRNA. Kind of data set: RT-PCR of MC1R mRNA in α-MSH-stimulated B16F10 cells. It counts as cell-based, mouse. The settings on record: 0.1, 1, and 10 μM; α-MSH 200 nM; normalized to GAPDH. As for the experimental part:
as §1, §2

In the case of KGYSSYICDK [DP], the “MITF mRNA level” value in the data set on MITF mRNA was “dose-dependent and significant decrease”. For the same sequence, the “ABTS radical scavenging, concentration dependence” value in [1] (732 nm) is on record as “concentration-dependent ABTS radical scavenging activity”. In addition, the ABTS radical scavenging entry in data set [1] (concentrations above 20 μM, 732 nm) is given as “over 90%”. For the same sequence, the “ABTS radical scavenging vs Vit. C” value in data set [1] (concentrations above 20 μM, p < 0.05) is “significantly outperforming Vit. C”. Moreover, the Tyrosinase inhibitory activity was 7.05% in the data set with mushroom tyrosinase (62.5 μM); 19.62% in the data set on mushroom tyrosinase (125 μM); 26.29% with mushroom tyrosinase (250 μM); 62.67% with mushroom tyrosinase (500 μM); 84.38% with mushroom tyrosinase (1000 μM); “tyrosinase inhibitory activities” with tyrosinase. Further, the “Free radical scavenging activity” value in data set [2] is given as “free radical scavenging”. In addition, the “Cytotoxicity in B16F10 melanoma cells” value with B16F10 melanoma cells [3] was “No cytotoxicity was observed”. In addition, the “Tyrosinase mRNA level” value in the data set with tyrosinase mRNA is “dose-dependent and significant decrease”. The “FRAP activity vs Vitamin C” value in data set [4] (1000 μM, p < 0.05) is on record as “significant activity at 1000 μM, comparable to Vitamin C”. Moreover, the “FRAP activity, concentration dependence” value in data set [4] (FeSO4 equivalents) was “dose-dependent FRAP activity”. Moreover, the “ROS levels in H2O2-treated HaCaT cells” value in the data set with HaCaT cells [5] is “significantly reduced”. Moreover, the “Cell viability of H2O2-treated HaCaT cells” value with HaCaT cells [6] was “enhanced cell viability in a dose-dependent manner”. The Melanin content is listed as 120.32% with B16F10 melanoma cells [7] (0.1 μM), 105.24% with B16F10 melanoma cells [7] (1 μM) and 83.21% in the data set on B16F10 melanoma cells [7] (10 μM). In addition, the “Melanin formation, morphological observation” value in the data set on B16F10 melanoma cells [7] (starting from 0.1 μM, α-MSH 200 nM, 200× magnification) is “melanin formation was inhibited starting from the 0.1 μM concentration”. Further, the “MC1R mRNA level” value in the data set on MC1R mRNA is “dose-dependent and significant decrease”.
